From publication PMC3907505, “The Mechanism of Intralipid®-Mediated Cardioprotection Complex IV Inhibition by the Active Metabolite, Palmitoylcarnitine, Generates Reactive Oxygen Species and Activates Reperfusion Injury Salvage Kinases” (PLoS ONE, 2014)

Target: T1, Complex IV (cytochrome c oxidase) (Rattus norvegicus, UniProt P00406+P05503)
T1 construct: gene Mt-co1; native complex in saponin-permeabilized left ventricular (apex) cardiac fibers; dimer of 13 subunits per monomer; with Cytochrome c oxidase subunit 3; Cytochrome c oxidase subunit 4 isoform 1, mitochondrial; Cytochrome c oxidase subunit 5A, mitochondrial; Cytochrome c oxidase subunit 5B, mitochondrial; Cytochrome c oxidase subunit 6A2, mitochondrial; Cytochrome c oxidase subunit 6B1; Cytochrome c oxidase subunit 6C; Cytochrome c oxidase subunit 7A1, mitochondrial; Cytochrome c oxidase subunit 7B, mitochondrial; Cytochrome c oxidase subunit 7C, mitochondrial; Cytochrome c oxidase subunit 8B, mitochondrial
Test: high-resolution respirometry (O2 consumption), permeabilized cardiac fibers
Type: biochemical
Conditions: ascorbate 2 mM/TMPD 0.5 mM as complex IV substrates, pH 7.1, 30°C, 1 g/l BSA in medium
Excerpt: high-resolution respirometry (O2 consumption), permeabilized cardiac fibers on Complex IV (cytochrome c oxidase)

Row | Compound | IC50 (Hillslope −0.86) | IC50 (Hillslope −1.58)
1 | CCCCCCCCCCCCCCCC(=O)O[C@H](CC(=O)[O-])C[N+](C)(C)C [C16∶0c, Palmitoylcarnitine] | 72.3 µM | –
2 | CCCCC/C=C\C/C=C\CCCCCCCC(=O)O[C@H](CC(=O)[O-])C[N+](C)(C)C [C18∶2c, cis,cis-9,12-octadecadienoyl-L-carnitine] | – | 65.6 µM
